Assay results from patent US20250011299A1, “PYRIDAZINYL AMINO DERIVATIVES AS ALK5 INHIBITORS” (CHIESI FARMACEUTICI S.P.A., priority 2021, published 2025).

target: T1, human ALK5 (Homo sapiens, UniProt P36897); experiment: ADP-GLO Kinases assay of ALK5 enzymatic activity; assay type: biochemical; settings: purified recombinant human ALK5, TGFβ1 peptide substrate, pIC50 converted to pKi by Cheng-Prusoff, high ATP protocol (15 μM) for very potent compounds, 25° C.
T1 construct: human ALK5 (recombinant TGF β1 N-term GST-tagged, 80-end); GST (N); purchased
T1 sequence (P36897 80-503 limits assumed): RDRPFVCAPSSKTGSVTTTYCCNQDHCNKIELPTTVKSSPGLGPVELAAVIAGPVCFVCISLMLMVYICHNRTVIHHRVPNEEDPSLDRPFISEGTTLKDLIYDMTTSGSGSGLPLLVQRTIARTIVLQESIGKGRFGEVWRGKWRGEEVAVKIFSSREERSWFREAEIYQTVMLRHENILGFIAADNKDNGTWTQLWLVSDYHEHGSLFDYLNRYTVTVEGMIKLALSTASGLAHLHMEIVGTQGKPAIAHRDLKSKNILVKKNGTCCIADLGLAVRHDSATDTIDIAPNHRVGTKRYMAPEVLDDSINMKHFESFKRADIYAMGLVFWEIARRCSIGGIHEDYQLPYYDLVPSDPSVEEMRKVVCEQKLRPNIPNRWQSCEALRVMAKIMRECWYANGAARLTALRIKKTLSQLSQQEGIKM
Method in brief: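 Purified ALK5 preincubated 15 min with compound, then reacted with substrate and ATP; ADP formed read by ADP-Glo luminescence after 120 min or 60 min reaction, all steps at 25° C. 11-point concentration-response; pIC50 converted to pKi via Cheng-Prusoff.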

Compound	Ki [pM]
C[C@@H]1CN(CCC(=O)Nc2cc(Nc3cc(-c4cc(Cl)ccc4F)nnc3SCCO)ncn2)C[C@H](C)N1 [Example 177, N-(6-{[6-(5-chloro-2-fluorophenyl)-3-[(2-hydroxyethyl)sulfanyl]pyridazin-4-yl]amino}pyrimidin-4-yl)-3-(3,5-dimethylpiperazin-1-yl)propanamide]	≤ 100
CN1CCN(CCC(=O)Nc2cc(Nc3cc(-c4cc(Cl)ccc4F)nnc3SCCNC(=O)C3COC(=O)C3)ccn2)CC1 (racemic) [Example 205, N-(2-{[6-(5-chloro-2-fluorophenyl)-4-({2-[3-(4-methylpiperazin-1-yl)propanamido]pyridin-4-yl}amino)pyridazin-3-yl]sulfanyl}ethyl)-5-oxooxolane-3-carboxamide]	≤ 100
C[C@@H]1CN(CCC(=O)Nc2cc(Nc3cc(-c4cc(Cl)ccc4F)nnc3N(C)CC3(C)CCOC3=O)ncn2)C[C@H](C)N1 (single isomer, unassigned) [Example 198, N-(6-{[6-(5-chloro-2-fluorophenyl)-3-{methyl[(3-methyl-2-oxooxolan-3-yl)methyl]amino}pyridazin-4-yl]amino}pyrimidin-4-yl)-3-(3,5-dimethylpiperazin-1-yl)propanamide]	≤ 100
C[C@@H]1CN(CC(=O)Nc2cc(Nc3cc(-c4cc(Cl)ccc4F)nnc3SCCO)ccn2)C[C@H](C)N1 [Example 193, N-(4-{[6-(5-chloro-2-fluorophenyl)-3-[(2-hydroxyethyl)sulfanyl]pyridazin-4-yl]amino}pyridin-2-yl)-2-(3,5-dimethylpiperazin-1-yl)acetamide]	≤ 100
CN1CC2CCC1CN(CC(=O)Nc1cc(Nc3cc(-c4cc(Cl)ccc4F)nnc3SCCO)ccn1)C2 (centres unmarked) [Example 82, N-(4-{[6-(5-chloro-2-fluorophenyl)-3-[(2-hydroxyethyl)sulfanyl]pyridazin-4-yl]amino}pyridin-2-yl)-2-{6-methyl-3,6-diazabicyclo[3.2.2]nonan-3-yl}acetamide]	≤ 100
CN1CCN(CCC(=O)Nc2cc(Nc3cc(-c4cc(Cl)ccc4F)nnc3OCC(F)F)ccn2)CC1 [Example 52, N-(4-{[6-(5-chloro-2-fluorophenyl)-3-(2,2-difluoroethoxy)pyridazin-4-yl]amino}pyridin-2-yl)-3-(4-methylpiperazin-1-yl)propanamide]	126 to 316
C[S+]([O-])CCCOc1nnc(-c2cc(Cl)ccc2F)cc1Nc1ccnc(N)c1 (centres unmarked) [Example 57, N4-[6-(5-chloro-2-fluorophenyl)-3-(3-methanesulfinylpropoxy)pyridazin-4-yl]pyridine-2,4-diamine]	398 to 3160
CN1CCCN(CCC(=O)Nc2cc(Nc3cc(-c4cc(Cl)ccc4F)nnc3SCCO)ccn2)CC1 [Example 84, N-(4-{[6-(5-chloro-2-fluorophenyl)-3-[(2-hydroxyethyl)sulfanyl]pyridazin-4-yl]amino}pyridin-2-yl)-3-(4-methyl-1,4-diazepan-1-yl)propanamide]	≤ 100

Other lines, results leading:

Ki [pM]	Compound
≤ 100	CN1CCN(CCC(=O)Nc2cc(Nc3cc(-c4cc(Cl)ccc4F)nnc3OCC3COC(C)(C)O3)ccn2)CC1 (centres unmarked) [Example 77, N-(4-{[6-(5-chloro-2-fluorophenyl)-3-[(2,2-dimethyl-1,3-dioxolan-4-yl)methoxy]pyridazin-4-yl]amino}pyridin-2-yl)-3-(4-methylpiperazin-1-yl)propanamide]
≤ 100	CSc1nnc(-c2cc(Cl)ccc2F)cc1Nc1ccnc(NC(=O)CCN2CCN(C)CC2)c1 [Example 16, N-(4-{[6-(5-chloro-2-fluorophenyl)-3-(methylsulfanyl)pyridazin-4-yl]amino}pyridin-2-yl)-3-(4-methylpiperazin-1-yl)propanamide]
≤ 100	COC(=O)C12CC(COc3nnc(-c4cc(Cl)ccc4F)cc3Nc3ccnc(NC(=O)[C@H]4C[C@@H](N5CCN(C)CC5)C4)c3)(C1)C2 [Example 126, Cis methyl 3-({[6-(5-chloro-2-fluorophenyl)-4-({2-[(1s,3s)-3-(4-methylpiperazin-1-yl)cyclobutaneamido]pyridin-4-yl}amino)pyridazin-3-yl]oxy}methyl)bicyclo[1.1.1]pentane-1-carboxylate]
